MIC data for two compounds are collected here from patent US20050181988A1, “Echinocandin cyclic peptide derivatives” (priority 2002, published 2005).

Like-named read-outs stand apart in the source and are kept apart here.

The assay deals with Candida albicans FP-633. Put plainly: In vitro antimicrobial activity: MICs in mouse serum by the microdilution method. In kind it is cell-based. Here is the method: In vitro antimicrobial activity of the object compound of Example 23, 46, 58 and 63 disclosed later was determined by MICS in mouse serum as described below.
The MICs in mouse serum were determined by the microdilution method using ICR mouse serum buffered with 20 mM HEPES buffer (pH 7.3) as a test medium. Inoculum suspension of 10^6 cells/ml were prepared by a hemocytometric procedure and diluted to obtain an inoculum size of approximately 1.0×10^3 cells/ml. Microplates were incubated at 37° C. for 24 hours in 5% CO2. The MICs was defined as the lowest concentrations at which no visible growth was observed.
For orientation: In broth dilution the organism is exposed to a series of concentrations in liquid medium.

Turning to `CCOCCOc1ccc(-c2ccc(-c3nnc(-c4ccc(C(=O)N[C@H]5C[C@@H](O)CNC(=O)[C@@H]6[C@@H](O)[C@@H](C)CN6C(=O)[C@H]([C@H](O)CCN)NC(=O)[C@H]([C@H](O)Cc6ccc(O)c(OCCCN)c6)NC(=O)[C@@H]6C[C@@H](O)CN6C(=O)[C@H]([C@@H](C)O)NC5=O)cc4)s3)cc2)cc1` [Example 46], the MIC (FP633, 24 h, pH 7.3, read-out: MIC (μg/ml), Candida albicans FP-633) is less than 0.2 µg/mL. As to `C[C@@H](O)[C@@H]1NC(=O)[C@@H](NC(=O)c2ccc(-c3nnc(-c4ccc(N5CCN([C@H]6CC[C@@H](C)CC6)CC5)nc4)s3)cc2)C[C@@H](O)CNC(=O)[C@@H]2[C@@H](O)[C@@H](C)CN2C(=O)[C@H]([C@H](O)CCN)NC(=O)[C@H]([C@H](O)Cc2ccc(O)c(OCCN)c2)NC(=O)[C@@H]2C[C@@H](O)CN2C1=O` [Example 58], for the setting “FP633, microdilution in ICR mouse serum buffered with 20 mM HEPES (pH 7.3), inoculum approx. 1.0×10^3 cells/ml, 37° C., 24 hours, 5% CO2, lowest concentration with no visible growth, read-out: MIC (μg/ml), Candida albicans FP-633”, the MIC was less than 0.2 µg/mL.
